Data from article PMC7917842, “Chlortetracycline, a Novel Arf Inhibitor That Decreases the Arf6-Dependent Invasive Properties of Breast Cancer Cells” (Molecules, 2021).

Key:
[1] = target: T1, Arf6 (Homo sapiens, UniProt P62330); test: mant-GTP loading (FRET) on purified Arf6 with EFA6A and azolectin liposomes; also […]GTPγS binding and tryptophan fluorescence; format: biochemical
T1 construct: full-length Arf6, C-terminal hexa-his tag (non myristoylated); also myristoylated Arf6; with EFA6A (exchange factor in the IC50 assay)

[2] = target: T2, Arf1 (Homo sapiens, UniProt P84077); test: spontaneous mant-GTP loading on purified myrArf1 with azolectin, […] CTC; also ARNO-catalysed exchange; format: biochemical
T2 construct: recombinant myristoylated Arf1 (myrArf1)
T2 sequence (P84077 2-181): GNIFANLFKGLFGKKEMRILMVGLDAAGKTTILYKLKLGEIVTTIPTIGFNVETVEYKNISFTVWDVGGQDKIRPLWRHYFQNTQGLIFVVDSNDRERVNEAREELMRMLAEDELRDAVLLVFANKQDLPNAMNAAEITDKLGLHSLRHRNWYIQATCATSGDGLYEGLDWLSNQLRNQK

T1 sequence (Q8NDX1 whole entry): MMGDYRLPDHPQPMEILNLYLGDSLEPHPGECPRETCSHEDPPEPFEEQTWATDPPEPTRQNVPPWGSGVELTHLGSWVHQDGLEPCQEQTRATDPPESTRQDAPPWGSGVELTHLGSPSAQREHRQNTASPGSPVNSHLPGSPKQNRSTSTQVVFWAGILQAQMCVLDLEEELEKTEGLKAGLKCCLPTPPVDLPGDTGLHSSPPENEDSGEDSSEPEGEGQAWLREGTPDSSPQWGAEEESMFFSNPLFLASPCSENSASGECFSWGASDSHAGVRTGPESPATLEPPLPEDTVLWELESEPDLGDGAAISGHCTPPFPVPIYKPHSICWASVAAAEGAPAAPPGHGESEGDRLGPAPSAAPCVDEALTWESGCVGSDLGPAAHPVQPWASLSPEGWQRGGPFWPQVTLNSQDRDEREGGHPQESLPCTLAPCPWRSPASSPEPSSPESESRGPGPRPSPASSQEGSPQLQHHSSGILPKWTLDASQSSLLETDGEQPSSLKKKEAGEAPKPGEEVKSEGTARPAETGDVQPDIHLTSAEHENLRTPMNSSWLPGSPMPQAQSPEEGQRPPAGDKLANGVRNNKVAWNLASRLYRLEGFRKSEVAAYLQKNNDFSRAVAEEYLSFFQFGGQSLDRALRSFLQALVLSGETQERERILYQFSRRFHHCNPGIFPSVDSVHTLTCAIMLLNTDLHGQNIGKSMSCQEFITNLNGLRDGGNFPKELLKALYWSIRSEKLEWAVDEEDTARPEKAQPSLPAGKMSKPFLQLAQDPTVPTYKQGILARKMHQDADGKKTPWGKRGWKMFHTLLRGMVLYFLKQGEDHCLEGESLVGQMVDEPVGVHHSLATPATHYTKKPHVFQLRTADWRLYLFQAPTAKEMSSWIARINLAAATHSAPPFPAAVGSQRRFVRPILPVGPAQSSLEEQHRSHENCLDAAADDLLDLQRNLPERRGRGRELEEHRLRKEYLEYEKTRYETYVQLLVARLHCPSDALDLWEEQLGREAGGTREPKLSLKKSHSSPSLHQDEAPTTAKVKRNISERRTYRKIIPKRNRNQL
T1 sequence (P62330 2-175): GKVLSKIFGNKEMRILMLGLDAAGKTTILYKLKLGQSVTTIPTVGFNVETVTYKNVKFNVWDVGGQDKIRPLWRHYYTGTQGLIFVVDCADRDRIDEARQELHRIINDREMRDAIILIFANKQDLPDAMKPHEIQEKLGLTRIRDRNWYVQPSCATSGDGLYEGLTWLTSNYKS

SMILES: CN(C)[C@@H]1C(O)=C(C(N)=O)C(=O)[C@@]2(O)C(O)=C3C(=O)c4c(O)ccc(Cl)c4[C@@](C)(O)[C@H]3C[C@@H]12 [CTC, chlortetracycline]
- IC50 [1]: 75 µM
- spontaneous mant-GTP loading on purified myrArf1 with azolectin, 100 μM CTC; als [2]: CTC was able to strongly inhibit the spontaneous activation on the myristoylated forms of Arf6 (myrArf6) and Arf1 (myrArf1)
